In test [1] the test system is Mycobacterium tuberculosis. In words: Inhibition of Mycobacterium tuberculosis His6-tagged wild type InhA expressed in Escherichia coli BL21 at 50 uM using DDCoA as substrate relative to control.
The subject of another test is Escherichia coli. Briefly: Antibacterial activity against Escherichia coli after 18 hrs by broth microdilution method. In kind it is functional. On the technique in general: Dilution methods test growth across graded concentrations, often in twofold steps.
Test [2] relates to Mycobacterium tuberculosis. Briefly: Antitubercular activity against Mycobacterium tuberculosis H37Rv after 5 days by microplate Alamar blue assay. As to conditions: 120 h. In kind it is functional. (In general: Resazurin is reduced to fluorescent resorufin, in cell work by metabolically active cells.)
In the next test the test system is A549. In words: Cytotoxicity against human A549 cells by MTT assay. In kind it is cell-based.
The next test has as its system Staphylococcus aureus. In words: Antibacterial activity against Staphylococcus aureus after 18 hrs by broth microdilution method. In kind it is functional.

Structures are written as SMILES. pIC50: −log10 of the molar value. Converted amounts (≈) assume the structure as drawn.

By inhibition is commonly meant the change of the read-out against control, counted positive when it falls. Read a low inhibition as a weak effect. What is called MIC is the smallest concentration in the dilution series that meets the test's criterion for growth inhibition. Read a high MIC as a less susceptible organism. As usually defined, the pIC50 is −log10 of the IC50, conventionally taken in molar units. `O=C(NNC(=O)c1ccc(-n2cccc2)cc1)c1ccc(Br)cc1`: in test [1], the inhibition amounted to 38%. In addition, the values for the MIC (in the test on Escherichia coli; in test [2]; in the test on Staphylococcus aureus) were 3.12 µg/mL (≈ 8.13 µM), 3.12 µg/mL (≈ 8.13 µM) and 6.25 µg/mL (≈ 16.3 µM), respectively. For the same molecule, the negative-log IC50 (pIC50) in the test with A549 was 4.40.

The molecule `CC[C@@H](CO)NCCN[C@@H](CC)CO` [ETHAMBUTOL] returned an MIC in test [2] of 0.5 µg/mL (≈ 2.45 µM).

Molecule `O=C(NNC(=O)c1ccc([N+](=O)[O-])cc1)c1ccc(-n2cccc2)cc1` gave an inhibition in test [1] of 22%. Also, the minimal inhibitory concentration (MIC) came out at 12.5 µg/mL (≈ 35.7 µM) in the test with Escherichia coli, 12.5 µg/mL (≈ 35.7 µM) in test [2] and 25 µg/mL (≈ 71.4 µM) against Staphylococcus aureus. For the same molecule, the pIC50 with A549 was 4.02.

As for `O=C(NNC(=O)c1ccccc1Cl)c1ccc(-n2cccc2)cc1`, the MIC against Escherichia coli amounted to 6.25 µg/mL (≈ 18.4 µM); in test [2], 3.12 µg/mL (≈ 9.2 µM); against Staphylococcus aureus it was 12.5 µg/mL (≈ 36.8 µM).

`O=C(NNC(=O)c1ccc(-n2cccc2)cc1)c1ccccc1` showed an inhibition in test [1] of 13%. The results for the minimal inhibitory concentration (MIC) (against Escherichia coli; in test [2]; in the test with Staphylococcus aureus) were 25 µg/mL (≈ 81.9 µM), 50 µg/mL (≈ 164 µM) and 50 µg/mL (≈ 164 µM), respectively. In the test on A549, the pIC50 is 3.61.

For the molecule `O=C(NNC(=O)c1ccc(-n2cccc2)cc1)c1ccc(Cl)cc1`, the inhibition in test [1] stood at 36%. Further, the MIC in the test on Escherichia coli came out at 3.12 µg/mL (≈ 9.2 µM); in test [2], 3.12 µg/mL (≈ 9.2 µM); with Staphylococcus aureus, 6.25 µg/mL (≈ 18.4 µM). In the test with A549, this molecule showed a pIC50 of 4.40.

As to `CCn1cc(C(=O)O)c(=O)c2cc(F)c(N3CCNCC3)cc21` [NORFLOXACIN], the minimum inhibitory concentration (MIC) against Escherichia coli turned out to be 4 µg/mL (≈ 12.5 µM); against Staphylococcus aureus, 2.02 µg/mL (≈ 6.33 µM).

As to `Nc1ccc(C(=O)NNC(=O)c2ccc(-n3cccc3)cc2)cc1`, the figures for the minimal inhibitory concentration (MIC) (in the test on Escherichia coli; in test [2]; against Staphylococcus aureus) were 12.5 µg/mL (≈ 39 µM), 12.5 µg/mL (≈ 39 µM) and 25 µg/mL (≈ 78 µM), respectively.

Take `Cc1cccc(C(=O)NNC(=O)c2ccc(-n3cccc3)cc2)c1`: the inhibition in test [1] is 29%. The MIC against Escherichia coli is 12.5 µg/mL (≈ 39.1 µM); in test [2], 12.5 µg/mL (≈ 39.1 µM); against Staphylococcus aureus it was 50 µg/mL (≈ 157 µM). This molecule showed a negative-log IC50 (pIC50) in the test on A549 of 3.71.

In turn, `O=C(O)c1cn(C2CC2)c2cc(N3CCNCC3)c(F)cc2c1=O` [CIPROFLOXACIN] displayed an MIC in the test on Staphylococcus aureus of 0.15 µg/mL (≈ 0.453 µM).

Turning to `Nc1ccccc1C(=O)NNC(=O)c1ccc(-n2cccc2)cc1`, the MIC against Escherichia coli amounted to 12.5 µg/mL (≈ 39 µM); in test [2] it was 12.5 µg/mL (≈ 39 µM); in the test on Staphylococcus aureus, 25 µg/mL (≈ 78 µM).

As to `Cc1ccc(C(=O)NNC(=O)c2ccc(-n3cccc3)cc2)cc1`, the minimal inhibitory concentration (MIC) in the test on Escherichia coli was 6.25 µg/mL (≈ 19.6 µM); in test [2], 12.5 µg/mL (≈ 39.1 µM); against Staphylococcus aureus it was 25 µg/mL (≈ 78.3 µM).

On to `O=C(NNC(=O)c1ccc(Cl)cc1Cl)c1ccc(-n2cccc2)cc1`, for which the MIC with Escherichia coli is 3.12 µg/mL (≈ 8.35 µM); in test [2], 3.12 µg/mL (≈ 8.35 µM); with Staphylococcus aureus, 12.5 µg/mL (≈ 33.4 µM).

`O=C(NNC(=O)c1ccc(-n2cccc2)cc1)c1ccc(F)cc1` registered an inhibition in test [1] of 35%. In addition, the MIC against Escherichia coli was determined as 3.12 µg/mL (≈ 9.67 µM); in test [2], 6.25 µg/mL (≈ 19.3 µM); in the test on Staphylococcus aureus it was 6.25 µg/mL (≈ 19.3 µM). This molecule gave a negative-log IC50 (pIC50) in the test on A549 of 3.71.

In test [2], `CO[C@H]1/C=C/O[C@@]2(C)Oc3c(C)c(O)c4c(O)c(c(/C=N/N5CCN(C)CC5)c(O)c4c3C2=O)NC(=O)/C(C)=C\C=C\[C@H](C)[C@H](O)[C@@H](C)[C@@H](O)[C@@H](C)[C@H](OC(C)=O)[C@@H]1C` [RIFAMPIN] had a minimum inhibitory concentration (MIC) of 0.4 µg/mL (≈ 0.486 µM).

Regarding `O=C(NNC(=O)c1ccccc1Br)c1ccc(-n2cccc2)cc1`, the MIC against Escherichia coli was found to be 3.12 µg/mL (≈ 8.13 µM); in test [2], 3.12 µg/mL (≈ 8.13 µM); against Staphylococcus aureus, 6.25 µg/mL (≈ 16.3 µM).

`Cc1ccccc1C(=O)NNC(=O)c1ccc(-n2cccc2)cc1` came in with an inhibition in test [1] of 12%. For the same molecule, the results for the minimum inhibitory concentration (MIC) (against Escherichia coli; in test [2]; in the test on Staphylococcus aureus) were 12.5 µg/mL (≈ 39.1 µM), 12.5 µg/mL (≈ 39.1 µM) and 25 µg/mL (≈ 78.3 µM), respectively. In addition, the negative-log IC50 (pIC50) in the test on A549 was 3.71.

Take `O=C(NNC(=O)c1cccc([N+](=O)[O-])c1)c1ccc(-n2cccc2)cc1`: the MIC in the test on Escherichia coli amounted to 25 µg/mL (≈ 71.4 µM); in test [2], 25 µg/mL (≈ 71.4 µM); against Staphylococcus aureus it was 50 µg/mL (≈ 143 µM).

Turning to `COc1ccc(C(=O)NNC(=O)c2ccc(-n3cccc3)cc2)cc1`, in test [1], the inhibition came to 13%. Besides, the results for the MIC (against Escherichia coli; in test [2]; against Staphylococcus aureus) were 25 µg/mL (≈ 74.5 µM), 12.5 µg/mL (≈ 37.3 µM) and 25 µg/mL (≈ 74.5 µM), respectively. Moreover, in the test with A549, the pIC50 was 3.61.

In test [1], `CC(=O)c1cccc(C(=O)NNC(=O)c2ccc(-n3cccc3)cc2)c1` came in with an inhibition of 31%. In addition, the results for the MIC (against Escherichia coli; in test [2]; against Staphylococcus aureus) were 12.5 µg/mL (≈ 36 µM), 12.5 µg/mL (≈ 36 µM) and 25 µg/mL (≈ 72 µM), respectively. The molecule further gave a pIC50 in the test on A549 of 4.10.

Regarding `Nc1cccc(C(=O)NNC(=O)c2ccc(-n3cccc3)cc2)c1`, the MIC came to 25 µg/mL (≈ 78 µM) against Escherichia coli, 25 µg/mL (≈ 78 µM) in test [2] and 50 µg/mL (≈ 156 µM) with Staphylococcus aureus.

In test [1], `O=C(NNC(=O)c1ccc(-n2cccc2)cc1)c1ccc(O)cc1` registered an inhibition of 29%. Besides, the MIC is 12.5 µg/mL (≈ 38.9 µM) against Escherichia coli, 12.5 µg/mL (≈ 38.9 µM) in test [2] and 25 µg/mL (≈ 77.8 µM) against Staphylococcus aureus. For the same molecule, in the test with A549, the pIC50 was 4.02.

As for `O=C(NNC(=O)c1cccc(Cl)c1)c1ccc(-n2cccc2)cc1`, the MIC in the test on Escherichia coli was 3.12 µg/mL (≈ 9.2 µM); in test [2] it was 6.25 µg/mL (≈ 18.4 µM); in the test on Staphylococcus aureus, 12.5 µg/mL (≈ 36.8 µM).

In turn, `Oc1cc(Cl)ccc1Oc1ccc(Cl)cc1Cl` registered an inhibition in test [1] above 99%.
